Reference: ChEMBL document CHEMBL5126594, “Entry inhibition of hepatitis B virus using cyclosporin O derivatives with peptoid side chain incorporation” (Bioorg Med Chem, 2022)
Square brackets hold non-standard residues; d marks the D form. Peptide text beside a SMILES is read from it. NMeL = CN[C@@H](CC(C)C)C(=O)O; NMeV = CN[C@H](C(=O)O)C(C)C; Nva = CCC[C@H](N)C(=O)O; Sar = CNCC(=O)O

Columns and labels:
Hepatitis B virus [1] = assay: Antiviral activity against Hepatitis B virus infected in human HepG2 cells expressing NTCP assessed as inhibition of viral entry by measuring intracellular HBV DNA at 1 uM preincubated with compound for 2 hrs followed by viral infection and measured after 3 hrs by qPCR analysis relative to control; format: functional; conditions: time 5 hrs
Hepatitis B virus [2] = assay: Antiviral activity against Hepatitis B virus infected in human HepG2 cells expressing NTCP assessed as inhibition of viral entry by measuring intracellular HBV DNA preincubated with compound for 2 hrs followed by viral infection and measured after 3 hrs by qPCR analysis; format: functional, organism-based
[3] = Cytotoxicity against human HepG2 cells assessed as reduction in cell viability incubated for 24 hrs by MTS assay; format: toxicity, cell-based; conditions: read-out: LC50
CYP1A2 = biological target: T1, CYP1A2 (Homo sapiens, UniProt P05177); assay: Inhibition of human CYP1A2 at 10 uM preincubated for 10 mins followed by NADPH addition and measured after 20 mins by luciferin reagent based luminescence analysis; format: ADME; conditions: time 30 min
T1 sequence (P05177 whole entry): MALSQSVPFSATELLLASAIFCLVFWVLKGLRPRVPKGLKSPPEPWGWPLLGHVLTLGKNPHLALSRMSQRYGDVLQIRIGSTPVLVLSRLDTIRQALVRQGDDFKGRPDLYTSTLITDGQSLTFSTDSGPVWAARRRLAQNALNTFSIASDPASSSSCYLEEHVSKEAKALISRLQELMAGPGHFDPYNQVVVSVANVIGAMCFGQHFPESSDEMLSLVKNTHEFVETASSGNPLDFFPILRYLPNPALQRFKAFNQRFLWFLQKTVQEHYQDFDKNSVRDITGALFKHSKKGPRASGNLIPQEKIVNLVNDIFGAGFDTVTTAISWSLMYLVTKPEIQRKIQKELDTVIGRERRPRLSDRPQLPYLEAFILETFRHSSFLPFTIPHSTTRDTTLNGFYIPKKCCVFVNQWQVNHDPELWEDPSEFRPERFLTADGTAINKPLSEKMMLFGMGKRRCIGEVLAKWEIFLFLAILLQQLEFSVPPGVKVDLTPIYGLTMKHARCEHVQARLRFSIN

CYP2C19 = CYP2C19 (Homo sapiens, UniProt P33261); assay: Inhibition of human CYP2C19 at 10 uM preincubated for 10 mins followed by NADPH addition and measured after 20 mins by luciferin reagent based luminescence analysis; format: ADME; conditions: time 30 min
CYP2D6 = CYP2D6 (Homo sapiens, UniProt P10635); assay: Inhibition of human CYP2D6 at 10 uM preincubated for 10 mins followed by NADPH addition and measured after 20 mins by luciferin reagent based luminescence analysis; format: ADME; conditions: time 30 min
CYP2C9 = CYP2C9 (Homo sapiens, UniProt P11712); assay: Inhibition of human CYP2C9 at 10 uM preincubated for 10 mins followed by NADPH addition and measured after 20 mins by luciferin reagent based luminescence analysis; format: ADME; conditions: time 30 min
CYP2C9, sequence (P11712 whole entry): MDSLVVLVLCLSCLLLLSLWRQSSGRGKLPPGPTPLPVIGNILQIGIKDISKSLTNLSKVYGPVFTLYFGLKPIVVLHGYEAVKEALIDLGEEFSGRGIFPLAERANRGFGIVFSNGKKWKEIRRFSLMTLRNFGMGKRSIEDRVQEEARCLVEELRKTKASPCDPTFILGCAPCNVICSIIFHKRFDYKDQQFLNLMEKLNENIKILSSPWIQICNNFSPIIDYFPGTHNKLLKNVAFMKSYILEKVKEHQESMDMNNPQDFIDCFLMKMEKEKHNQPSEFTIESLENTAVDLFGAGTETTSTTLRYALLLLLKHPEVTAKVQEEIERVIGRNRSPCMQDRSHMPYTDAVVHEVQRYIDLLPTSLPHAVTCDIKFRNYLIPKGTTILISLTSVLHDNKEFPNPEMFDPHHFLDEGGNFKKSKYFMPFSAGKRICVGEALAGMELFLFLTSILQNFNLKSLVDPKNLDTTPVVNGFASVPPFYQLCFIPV

CYP2C19, sequence (P33261 whole entry): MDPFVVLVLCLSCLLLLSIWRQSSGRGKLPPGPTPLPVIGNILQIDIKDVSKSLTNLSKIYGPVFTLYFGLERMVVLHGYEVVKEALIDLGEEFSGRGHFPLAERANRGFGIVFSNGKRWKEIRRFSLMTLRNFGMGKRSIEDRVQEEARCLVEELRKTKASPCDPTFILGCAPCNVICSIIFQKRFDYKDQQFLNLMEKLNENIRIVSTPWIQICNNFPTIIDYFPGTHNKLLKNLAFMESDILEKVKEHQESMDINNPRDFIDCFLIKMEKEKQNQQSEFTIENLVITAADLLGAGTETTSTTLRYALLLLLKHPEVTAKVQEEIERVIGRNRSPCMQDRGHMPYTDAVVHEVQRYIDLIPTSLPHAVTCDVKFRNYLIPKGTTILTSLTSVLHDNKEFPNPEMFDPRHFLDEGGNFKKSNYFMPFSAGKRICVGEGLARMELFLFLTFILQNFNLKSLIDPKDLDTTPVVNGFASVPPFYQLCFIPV
CYP2D6, sequence (P10635 whole entry): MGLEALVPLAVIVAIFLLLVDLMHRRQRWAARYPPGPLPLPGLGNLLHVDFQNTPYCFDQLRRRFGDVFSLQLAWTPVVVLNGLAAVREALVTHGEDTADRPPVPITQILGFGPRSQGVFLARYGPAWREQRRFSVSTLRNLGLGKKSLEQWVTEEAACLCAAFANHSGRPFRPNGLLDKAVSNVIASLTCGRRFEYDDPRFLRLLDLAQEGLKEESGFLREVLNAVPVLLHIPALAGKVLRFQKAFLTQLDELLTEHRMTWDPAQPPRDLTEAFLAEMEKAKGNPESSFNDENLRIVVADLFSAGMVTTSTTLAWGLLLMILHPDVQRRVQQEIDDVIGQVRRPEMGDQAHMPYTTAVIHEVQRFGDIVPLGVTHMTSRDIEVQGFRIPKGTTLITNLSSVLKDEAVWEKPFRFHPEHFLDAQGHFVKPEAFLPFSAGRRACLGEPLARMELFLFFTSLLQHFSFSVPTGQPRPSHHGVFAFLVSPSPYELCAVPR

Compound | inhibition at 1 µM (Hepatitis B virus [1]) [%] | also measured
CCC[C@@H]1NC(=O)[C@H](CC(C)C)N(C)C(=O)[C@H](CC(C)C)N(C)C(=O)[C@H](CC(C)C)N(C)C(=O)CN(C)C(=O)[C@@H](C)NC(=O)[C@@H](CCC(N)=O)NC(=O)[C@H](CC(C)C)N(C)C(=O)[C@H](C(C)C)NC(=O)[C@H](CC(C)C)N(C)C(=O)CN(C)C1=O | 64 | 
CCC[C@@H]1NC(=O)[C@H](CC(C)C)N(C)C(=O)[C@H](CC(C)C)N(C)C(=O)[C@H](CC(C)C)N(C)C(=O)[C@H](CC(C)C)N(C)C(=O)[C@@H](C)NC(=O)[C@@H](CCC(N)=O)NC(=O)[C@H](CC(C)C)N(C)C(=O)[C@H](C(C)C)NC(=O)CN(CCCCN)C(=O)CN(C)C1=O | 71 | 
CCC[C@@H]1NC(=O)[C@H](CC(C)C)N(C)C(=O)[C@H](CC(C)C)N(C)C(=O)CN(CCOC)C(=O)[C@H](CC(C)C)N(C)C(=O)[C@@H](C)NC(=O)[C@@H](CCC(N)=O)NC(=O)[C@H](CC(C)C)N(C)C(=O)[C@H](C(C)C)NC(=O)[C@H](CC(C)C)N(C)C(=O)CN(C)C1=O | 52 | 
CCC[C@@H]1NC(=O)[C@H](CC(C)C)N(C)C(=O)[C@H](CC(C)C)N(C)C(=O)[C@H](CC(C)C)N(C)C(=O)[C@H](CC(C)C)N(C)C(=O)[C@@H](C)NC(=O)[C@@H](CCC(N)=O)NC(=O)[C@H](CC(C)C)N(C)C(=O)[C@H](C(C)C)NC(=O)CN(CCOC)C(=O)CN(C)C1=O | 67 | 
CCC[C@@H]1NC(=O)[C@H](CC(C)C)N(C)C(=O)[C@H](CC(C)C)N(C)C(=O)[C@H](CC(C)C)N(C)C(=O)[C@H](CC(C)C)N(C)C(=O)[C@@H](C)NC(=O)[C@@H](CCC(N)=O)NC(=O)[C@H](CC(C)C)N(C)C(=O)[C@H](C(C)C)NC(=O)CN(CCC(=O)O)C(=O)CN(C)C1=O | 61 | 
CCC[C@@H]1NC(=O)[C@H](CC(C)C)N(C)C(=O)[C@H](CC(C)C)N(C)C(=O)[C@H](CC(C)C)N(C)C(=O)[C@H](CC(C)C)N(C)C(=O)[C@@H](C)NC(=O)[C@H](CCC(N)=O)NC(=O)[C@H](CC(C)C)N(C)C(=O)[C@H](C(C)C)NC(=O)CN(C)C(=O)CN(C)C1=O | 86 | IC50 (Hepatitis B virus [2]): 440 nM
CCC[C@@H]1NC(=O)[C@H](CC(C)C)N(C)C(=O)[C@H](CC(C)C)N(C)C(=O)[C@H](CC(C)C)N(C)C(=O)CN(CC(C)C)C(=O)[C@@H](C)NC(=O)[C@@H](CCC(N)=O)NC(=O)[C@H](CC(C)C)N(C)C(=O)[C@H](C(C)C)NC(=O)[C@H](CC(C)C)N(C)C(=O)CN(C)C1=O | 62 | 
CCC[C@@H]1NC(=O)[C@H](CC(C)C)N(C)C(=O)[C@H](CC(C)C)N(C)C(=O)CN(CCC(=O)O)C(=O)[C@H](CC(C)C)N(C)C(=O)[C@@H](C)NC(=O)[C@@H](CCC(N)=O)NC(=O)[C@H](CC(C)C)N(C)C(=O)[C@H](C(C)C)NC(=O)[C@H](CC(C)C)N(C)C(=O)CN(C)C1=O | 63 | 
CCC[C@@H]1NC(=O)[C@H](CC(C)C)N(C)C(=O)[C@H](CC(C)C)N(C)C(=O)CN(CC(C)C)C(=O)[C@H](CC(C)C)N(C)C(=O)[C@@H](C)NC(=O)[C@@H](CCC(N)=O)NC(=O)[C@H](CC(C)C)N(C)C(=O)[C@H](C(C)C)NC(=O)[C@H](CC(C)C)N(C)C(=O)CN(C)C1=O | 65 | 
CCC[C@@H]1NC(=O)[C@H](CC(C)C)N(C)C(=O)[C@H](CC(C)C)N(C)C(=O)[C@H](CC(C)C)N(C)C(=O)CN(CCC(=O)O)C(=O)[C@@H](C)NC(=O)[C@@H](CCC(N)=O)NC(=O)[C@H](CC(C)C)N(C)C(=O)[C@H](C(C)C)NC(=O)[C@H](CC(C)C)N(C)C(=O)CN(C)C1=O | 84 | IC50 (Hepatitis B virus [2]): 450 nM; CC50 at 24 h [3]: > 200000 nM
CCC[C@@H]1NC(=O)[C@H](CC(C)C)N(C)C(=O)[C@H](CC(C)C)N(C)C(=O)[C@H](CC(C)C)N(C)C(=O)[C@H](CC(C)C)N(C)C(=O)[C@@H](C)NC(=O)[C@@H](CCC(N)=O)NC(=O)[C@H](CC(C)C)N(C)C(=O)[C@H](C(C)C)NC(=O)CN(CC(C)C)C(=O)CN(C)C1=O | 85 | IC50 (Hepatitis B virus [2]): 420 nM
CCC[C@@H]1NC(=O)[C@H](CC(C)C)N(C)C(=O)[C@H](CC(C)C)N(C)C(=O)[C@H](CC(C)C)N(C)C(=O)[C@H](CC(C)C)N(C)C(=O)[C@@H](C)NC(=O)[C@@H](CCC(N)=O)NC(=O)[C@H](CC(C)C)N(C)C(=O)[C@H](C(C)C)NC(=O)CN(CCO)C(=O)CN(C)C1=O | 66 | 
CCC[C@@H]1NC(=O)[C@H](CC(C)C)N(C)C(=O)[C@H](CC(C)C)N(C)C(=O)CN(C)C(=O)[C@H](CC(C)C)N(C)C(=O)[C@@H](C)NC(=O)[C@@H](CCC(N)=O)NC(=O)[C@H](CC(C)C)N(C)C(=O)[C@H](C(C)C)NC(=O)[C@H](CC(C)C)N(C)C(=O)CN(C)C1=O | 37 | 
CCC[C@@H]1NC(=O)[C@H](CC(C)C)N(C)C(=O)[C@H](CC(C)C)N(C)C(=O)[C@H](CC(C)C)N(C)C(=O)CN(CCOC)C(=O)[C@@H](C)NC(=O)[C@@H](CCC(N)=O)NC(=O)[C@H](CC(C)C)N(C)C(=O)[C@H](C(C)C)NC(=O)[C@H](CC(C)C)N(C)C(=O)CN(C)C1=O | 72 | 
CCC[C@@H]1NC(=O)[C@H](CC(C)C)N(C)C(=O)[C@H](CC(C)C)N(C)C(=O)CN(Cc2ccccc2)C(=O)[C@H](CC(C)C)N(C)C(=O)[C@@H](C)NC(=O)[C@@H](CCC(N)=O)NC(=O)[C@H](CC(C)C)N(C)C(=O)[C@H](C(C)C)NC(=O)[C@H](CC(C)C)N(C)C(=O)CN(C)C1=O | 62 | 
CCC[C@@H]1NC(=O)[C@H](CC(C)C)N(C)C(=O)[C@H](CC(C)C)N(C)C(=O)[C@H](CC(C)C)N(C)C(=O)CN(CCO)C(=O)[C@@H](C)NC(=O)[C@@H](CCC(N)=O)NC(=O)[C@H](CC(C)C)N(C)C(=O)[C@H](C(C)C)NC(=O)[C@H](CC(C)C)N(C)C(=O)CN(C)C1=O | 59 | 
CCC[C@@H]1NC(=O)[C@H](CC(C)C)N(C)C(=O)[C@H](CC(C)C)N(C)C(=O)CN(CCCCN)C(=O)[C@H](CC(C)C)N(C)C(=O)[C@@H](C)NC(=O)[C@@H](CCC(N)=O)NC(=O)[C@H](CC(C)C)N(C)C(=O)[C@H](C(C)C)NC(=O)[C@H](CC(C)C)N(C)C(=O)CN(C)C1=O | 57 | 
CCC[C@@H]1NC(=O)[C@H](CC(C)C)N(C)C(=O)[C@H](CC(C)C)N(C)C(=O)[C@H](CC(C)C)N(C)C(=O)CN(CCCCN)C(=O)[C@@H](C)NC(=O)[C@@H](CCC(N)=O)NC(=O)[C@H](CC(C)C)N(C)C(=O)[C@H](C(C)C)NC(=O)[C@H](CC(C)C)N(C)C(=O)CN(C)C1=O | 69 | 
CCC[C@@H]1NC(=O)[C@H](CC(C)C)N(C)C(=O)[C@H](CC(C)C)N(C)C(=O)[C@H](CC(C)C)N(C)C(=O)CN(Cc2ccccc2)C(=O)[C@@H](C)NC(=O)[C@@H](CCC(N)=O)NC(=O)[C@H](CC(C)C)N(C)C(=O)[C@H](C(C)C)NC(=O)[C@H](CC(C)C)N(C)C(=O)CN(C)C1=O | 69 | 
CCC[C@@H]1NC(=O)[C@H](CC(C)C)N(C)C(=O)[C@H](C(C)C)N(C)C(=O)[C@H](CC(C)C)N(C)C(=O)[C@H](CC(C)C)N(C)C(=O)[C@@H](C)NC(=O)[C@@H](CCC(N)=O)NC(=O)[C@H](CC(C)C)N(C)C(=O)[C@H](C(C)C)NC(=O)[C@H](CC(C)C)N(C)C(=O)CN(C)C1=O | 57 | 
CCC[C@@H]1NC(=O)[C@H](CC(C)C)N(C)C(=O)[C@H](CC(C)C)N(C)C(=O)[C@H](CC(C)C)N(C)C(=O)[C@H](CC(C)C)N(C)C(=O)[C@@H](C)NC(=O)[C@@H](CCC(N)=O)NC(=O)[C@H](CC(C)C)N(C)C(=O)[C@H](C(C)C)NC(=O)CN(Cc2ccccc2)C(=O)CN(C)C1=O | 36 | 
CCC[C@@H]1NC(=O)[C@H](CC(C)C)N(C)C(=O)[C@H](C(C)C)N(C)C(=O)[C@H](CC(C)C)N(C)C(=O)[C@H](CC(C)C)N(C)C(=O)[C@@H](C)NC(=O)[C@H](C)NC(=O)[C@H](CC(C)C)N(C)C(=O)[C@H](C(C)C)NC(=O)[C@H](CC(C)C)N(C)C(=O)CN(C)C1=O (cyclo(A[dA][NMeL][NMeL][NMeV][NMeL][Nva][Sar][NMeL]V[NMeL])) | 75 | IC50 (Hepatitis B virus [2]): 510 nM; CC50 at 24 h [3]: > 200000 nM
O=c1cc(-c2ccccc2)oc2c1ccc1ccccc12 [ALPHA-NAPHTHOFLAVONE] |  | inhibition at 20 min, 10 µM (CYP1A2): 97.1%
CN(C)CCC=C1c2ccccc2CCc2ccccc21 [AMITRIPTYLINE] |  | inhibition at 20 min, 10 µM (CYP2C19): 92.1%
C/C=C/C[C@@H](C)[C@@H](O)[C@H]1C(=O)N[C@@H](CC)C(=O)N(C)CC(=O)N(C)[C@@H](CC(C)C)C(=O)N[C@@H](C(C)C)C(=O)N(C)[C@@H](CC(C)C)C(=O)N[C@@H](C)C(=O)N[C@H](C)C(=O)N(C)[C@@H](CC(C)C)C(=O)N(C)[C@@H](CC(C)C)C(=O)N(C)[C@@H](C(C)C)C(=O)N1C [CYCLOSPORINE] | 83 | IC50 (Hepatitis B virus [2]): 400 nM
C=C[C@H]1C[N@@]2CC[C@H]1C[C@@H]2[C@@H](O)c1ccnc2ccc(OC)cc12 [QUINIDINE] |  | inhibition at 20 min, 10 µM (CYP2D6): 97.5%
Nc1ccc(S(=O)(=O)Nc2ccnn2-c2ccccc2)cc1 [SULFAPHENAZOLE] |  | inhibition at 20 min, 10 µM (CYP2C9): 94.4%
